Test results published in PubChem BioAssay AID1963860 (Molecular Pharmacology Branch, DTP, NCI, 2024).
Active and inactive are the calls of the source. The calls were made as follows: active = viability on the fitted dose curve at most 10% of control; inactive = the rest.

Test system: CN0375-F725-PDC KRAS spheroid viability
Assay: Anticancer human tumor CN0375-F725-PDC patient-derived colon carcinoma cell line growth inhibition [KRAS2]
Details: spheroids with HUVEC and MSC; for IC50: curve of first compound; for viability, T/C: stronger effect = lower value
In short: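 Combination screen of spheroid viability in tumor-cell co-cultures with endothelial (HUVEC) and mesenchymal stem cell stroma. Each agent was tested in half-log dilutions, topping at clinical Cmax or at 10 microM without a known Cmax.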

[1] = second compound 0.1 µM, first compound 0.000316 µM
[2] = second compound 0.1 µM, first compound 0.001 µM
[3] = second compound 0.1 µM, first compound 0.00316 µM
[4] = second compound 0.1 µM, first compound 0.01 µM
[5] = second compound 0.1 µM, first compound 0.0316 µM
[6] = second compound 0.316 µM, first compound 0.000316 µM
[7] = second compound 0.316 µM, first compound 0.001 µM
[8] = second compound 0.316 µM, first compound 0.00316 µM
[9] = second compound 0.316 µM, first compound 0.01 µM
[10] = second compound 0.316 µM, first compound 0.0316 µM
[11] = second compound 1 µM, first compound 0.000316 µM
[12] = second compound 1 µM, first compound 0.001 µM
[13] = second compound 1 µM, first compound 0.00316 µM
[14] = second compound 1 µM, first compound 0.01 µM
[15] = second compound 1 µM, first compound 0.0316 µM
[16] = second compound 3.16 µM, first compound 0.000316 µM
[17] = second compound 3.16 µM, first compound 0.001 µM
[18] = second compound 3.16 µM, first compound 0.00316 µM
[19] = second compound 3.16 µM, first compound 0.01 µM
[20] = second compound 3.16 µM, first compound 0.0316 µM
[21] = second compound 10 µM, first compound 0.000316 µM
[22] = second compound 10 µM, first compound 0.001 µM
[23] = second compound 10 µM, first compound 0.00316 µM
[24] = second compound 10 µM, first compound 0.01 µM
[25] = second compound 10 µM, first compound 0.0316 µM
[26] = second compound 0.1 µM, first compound 0.1 µM
[27] = second compound 0.316 µM, first compound 0.1 µM
[28] = second compound 1 µM, first compound 0.1 µM
[29] = second compound 3.16 µM, first compound 0.1 µM
[30] = second compound 10 µM, first compound 0.1 µM
[31] = second compound 0.1 µM, first compound 0.316 µM
[32] = second compound 0.1 µM, first compound 1 µM
[33] = second compound 0.1 µM, first compound 3.16 µM
[34] = second compound 0.1 µM, first compound 10 µM
[35] = second compound 0.316 µM, first compound 0.316 µM
[36] = second compound 0.316 µM, first compound 1 µM
[37] = second compound 0.316 µM, first compound 3.16 µM
[38] = second compound 0.316 µM, first compound 10 µM
[39] = second compound 1 µM, first compound 0.316 µM
[40] = second compound 1 µM, first compound 1 µM
[41] = second compound 1 µM, first compound 3.16 µM
[42] = second compound 1 µM, first compound 10 µM
[43] = second compound 3.16 µM, first compound 0.316 µM
[44] = second compound 3.16 µM, first compound 1 µM
[45] = second compound 3.16 µM, first compound 3.16 µM
[46] = second compound 3.16 µM, first compound 10 µM
[47] = second compound 10 µM, first compound 0.316 µM
[48] = second compound 10 µM, first compound 1 µM
[49] = second compound 10 µM, first compound 3.16 µM
[50] = second compound 10 µM, first compound 10 µM
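Also: spheroids exposed to agents for 7 days.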

CC(=O)Nc1cccc(-n2c(=O)n(C3CC3)c(=O)c3c(Nc4ccc(I)cc4F)n(C)c(=O)c(C)c32)c1 + CNCc1ccccc1-c1csc(C(C)Nc2nc(C)nc3cc(OC)c(OC)cc23)c1
IC50 (second compound 0.1 µM): 3.38 nM | IC50 (second compound 0.316 µM): 1.9 nM | IC50 (second compound 1 µM): < 0.1 nM | IC50 (second compound 3.16 µM): < 0.1 nM | IC50 (second compound 10 µM): < 0.1 nM | viability, T/C (second compound 0.1 µM, first compound 0.0001 µM): 89.5% | viability, T/C [1]: 78% | viability, T/C [2]: 59.4% | viability, T/C [3]: 51% | viability, T/C [4]: 42.3% | viability, T/C [5]: 30.2% | viability, T/C (second compound 0.316 µM, first compound 0.0001 µM): 83.9% | viability, T/C [6]: 70.9% | viability, T/C [7]: 56.4% | viability, T/C [8]: 42.7% | viability, T/C [9]: 37.9% | viability, T/C [10]: 26.6% | viability, T/C (second compound 1 µM, first compound 0.0001 µM): 45.4% | viability, T/C [11]: 36.8% | viability, T/C [12]: 13.3% | viability, T/C [13]: 18.2% | viability, T/C [14]: 11.4% | viability, T/C [15]: 3.9% | viability, T/C (second compound 3.16 µM, first compound 0.0001 µM): 1.63% | viability, T/C [16]: 0.39% | viability, T/C [17]: 0.3% | viability, T/C [18]: 0.37% | viability, T/C [19]: 0.23% | viability, T/C [20]: 0.73% | viability, T/C (second compound 10 µM, first compound 0.0001 µM): 0.67% | viability, T/C [21]: 0.27% | viability, T/C [22]: 0.26% | viability, T/C [23]: 0.37% | viability, T/C [24]: 0.36% | viability, T/C [25]: 0.25%

CN(C)C/C=C/C(=O)Nc1cc2c(Nc3ccc(F)c(Cl)c3)ncnc2cc1O[C@H]1CCOC1 + CNCc1ccccc1-c1csc(C(C)Nc2nc(C)nc3cc(OC)c(OC)cc23)c1
IC50 (second compound 0.1 µM): > 100 nM | IC50 (second compound 0.316 µM): > 100 nM | IC50 (second compound 1 µM): 77.3 nM | IC50 (second compound 3.16 µM): 1.8 nM | IC50 (second compound 10 µM): < 0.316 nM | viability, T/C [1]: 97.1% | viability, T/C [2]: 95.9% | viability, T/C [3]: 83.1% | viability, T/C [4]: 86.4% | viability, T/C [5]: 78.4% | viability, T/C [26]: 74.2% | viability, T/C [6]: 94.8% | viability, T/C [7]: 88.3% | viability, T/C [8]: 78.3% | viability, T/C [9]: 74.6% | viability, T/C [10]: 76.1% | viability, T/C [27]: 70.5% | viability, T/C [11]: 76.3% | viability, T/C [12]: 67.6% | viability, T/C [13]: 53.1% | viability, T/C [14]: 54.8% | viability, T/C [15]: 60.4% | viability, T/C [28]: 43.6% | viability, T/C [16]: 99.2% | viability, T/C [17]: 102% | viability, T/C [18]: 0.46% | viability, T/C [19]: 0.32% | outcome [20]: active | viability, T/C [29]: 3.19% | viability, T/C [21]: 0.26% | viability, T/C [22]: 0.23% | viability, T/C [23]: 0.35% | viability, T/C [24]: 0.73% | viability, T/C [25]: 0.29% | viability, T/C [30]: 0.22%

COC(=O)c1ccc2c(C(=Nc3ccc(N(C)C(=O)CN4CCN(C)CC4)cc3)c3ccccc3)c(O)[nH]c2c1 + CNCc1ccccc1-c1csc(C(C)Nc2nc(C)nc3cc(OC)c(OC)cc23)c1
IC50 (second compound 0.1 µM): 3220 nM | IC50 (second compound 0.316 µM): 1570 nM | IC50 (second compound 1 µM): 3840 nM | IC50 (second compound 3.16 µM): < 31.6 nM | IC50 (second compound 10 µM): < 31.6 nM | viability, T/C [5]: 95.2% | viability, T/C [26]: 95.4% | viability, T/C [31]: 86.6% | viability, T/C [32]: 83.5% | viability, T/C [33]: 50.3% | viability, T/C [34]: 0.35% | viability, T/C [10]: 94.7% | viability, T/C [27]: 88% | viability, T/C [35]: 84.3% | viability, T/C [36]: 73.1% | viability, T/C [37]: 14.9% | viability, T/C [38]: 0.2% | viability, T/C [15]: 84.7% | viability, T/C [28]: 87.9% | viability, T/C [39]: 77.3% | viability, T/C [40]: 68% | viability, T/C [41]: 65% | viability, T/C [42]: 0.24% | viability, T/C [20]: 1% | viability, T/C [29]: 0.73% | viability, T/C [43]: 0.68% | viability, T/C [44]: 1.02% | viability, T/C [45]: 0.63% | viability, T/C [46]: 0.32% | viability, T/C [25]: 0.63% | viability, T/C [30]: 0.51% | viability, T/C [47]: 0.5% | viability, T/C [48]: 0.37% | viability, T/C [49]: 0.61% | viability, T/C [50]: 0.3%

COc1cc(Nc2ncc3c(n2)-c2ccc(Cl)cc2C(c2c(F)cccc2OC)=NC3)ccc1C(=O)O + CNCc1ccccc1-c1csc(C(C)Nc2nc(C)nc3cc(OC)c(OC)cc23)c1
IC50 (second compound 0.1 µM): > 10000 nM | IC50 (second compound 0.316 µM): > 10000 nM | IC50 (second compound 1 µM): > 10000 nM | IC50 (second compound 3.16 µM): < 31.6 nM | IC50 (second compound 10 µM): < 31.6 nM | viability, T/C [5]: 101% | viability, T/C [26]: 95% | viability, T/C [31]: 93.5% | viability, T/C [32]: 90.8% | viability, T/C [33]: 89% | viability, T/C [34]: 75.9% | viability, T/C [10]: 96.8% | viability, T/C [27]: 93.1% | viability, T/C [35]: 88.4% | viability, T/C [36]: 83.8% | viability, T/C [37]: 87.3% | viability, T/C [38]: 75.7% | viability, T/C [15]: 58.2% | viability, T/C [28]: 54.7% | viability, T/C [39]: 57.5% | viability, T/C [40]: 61% | viability, T/C [41]: 61.7% | viability, T/C [42]: 48.4% | viability, T/C [20]: 0.72% | viability, T/C [29]: 0.93% | viability, T/C [43]: 0.51% | viability, T/C [44]: 0.58% | viability, T/C [45]: 1.16% | viability, T/C [46]: 0.38% | viability, T/C [25]: 0.31% | viability, T/C [30]: 0.48% | viability, T/C [47]: 0.55% | viability, T/C [48]: 0.16% | viability, T/C [49]: 0.24% | viability, T/C [50]: 0.19%

O=C(c1cc(Cc2n[nH]c(=O)c3ccccc23)ccc1F)N1CCN(C(=O)C2CC2)CC1 + CNCc1ccccc1-c1csc(C(C)Nc2nc(C)nc3cc(OC)c(OC)cc23)c1
IC50 (second compound 0.1 µM): > 10000 nM | IC50 (second compound 0.316 µM): > 10000 nM | IC50 (second compound 1 µM): > 10000 nM | IC50 (second compound 3.16 µM): < 31.6 nM | IC50 (second compound 10 µM): < 31.6 nM | viability, T/C [5]: 112% | viability, T/C [26]: 109% | viability, T/C [31]: 100% | viability, T/C [32]: 107% | viability, T/C [33]: 104% | viability, T/C [34]: 95.5% | viability, T/C [10]: 108% | viability, T/C [27]: 105% | viability, T/C [35]: 96.8% | viability, T/C [36]: 92.3% | viability, T/C [37]: 96.9% | viability, T/C [38]: 87.7% | viability, T/C [15]: 96.9% | viability, T/C [28]: 94.8% | viability, T/C [39]: 89.7% | viability, T/C [40]: 81% | viability, T/C [41]: 87.8% | viability, T/C [42]: 79.6% | viability, T/C [20]: 0.68% | viability, T/C [29]: 0.36% | viability, T/C [43]: 0.74% | viability, T/C [44]: 0.33% | viability, T/C [45]: 0.37% | viability, T/C [46]: 0.55% | viability, T/C [25]: 0.64% | viability, T/C [30]: 0.22% | viability, T/C [47]: 0.57% | viability, T/C [48]: 0.37% | viability, T/C [49]: 0.19% | viability, T/C [50]: 0.33%
